# Experimental data published in US8962843B2, “1,3,4-oxadiazole and 1,3,4-thiadiazole beta-lactamase inhibitors” (priority 2012, dated 2015).
# Counter-ions that a name gives are not always drawn.
# Test system: bacterial strains that express the class D cephalosporinase OXA-15
# Experiment: Standard BLI potentiation MIC / synergy MIC assays, strains expressing OXA-15
# Type: cell-based, E. coli
# Conditions: in combination with a β-lactam; comparator Avibactam (CCC)
# Method: The experimental protocol was performed according to Clinical and Laboratory Standards Institute (CLSI) guidelines with modifications as described below (CLSI guidelines can be derived from the CLSI document M07-A9 published in January 2012: “Methods for Dilution Antimicrobial Susceptibility Tests for Bacteria That Grow Aerobically; Approved Standard-Ninth Edition”).
# To prepare for MIC testing, frozen glycerol stocks of clinical isolates (Klebsiella pneumoniae, Eschericia coli, Enterobacter spp, Citrobacter spp, or Pseudomonas aeruginosa) were used to streak for isolated colonies on rich, non-selective, tryptic soy agar containing 5% sheep's blood (TSAB). Frozen glycerol stocks of laboratory engineered, isogenic E. coli strains, which contain cloned β-lactamase expressing plasmids were used to streak for isolated colonies on rich, selective LB agar supplemented with 25 μg/mL tetracycline to maintain the plasmid. All strains were incubated at 37° C. for 18-24 hrs.
# On the day of testing, primary cultures were started by scraping off 5-10 colonies from the TSAB plates containing clinical strains or the tetracycline supplemented LB plates containing engineered strains. The clinical strain material was suspended in ˜5 mL of cation adjusted Mueller Hinton Broth (CAMHB) in 14 mL culture tubes. The engineered strain material was suspended in CAMHB (supplemented with 25 μg/mL tetracycline) in 14 mL culture tubes. All strains were incubated at 37° C. with aeration (200 rpm) for ˜2 hrs until the optical density at 600 nm (OD600) was >0.1.
# The two compound components of the assay were each diluted in CAMHB and added to the 96-well broth microdilution assay plates. 50 μL of the β-lactam was added to each well of the assay plate in 2-fold dilutions with final concentrations ranging from 128 to 0.13 μg/mL. 25 μL of the BLI compound was added to all wells in the broth microdilution plates at a final concentration of 4 μg/mL. Inoculum cultures were prepared by standardizing the primary cultures to OD600=0.1 and then adding 20 μL of the adjusted primary culture per 1 mL CAMHB for clinical strains or CAMHB (supplemented with tetracycline at 100 μg/mL) for engineered strains, so that the final inoculum density was ˜10^5 colony forming units per milliliter. Diluted inoculum cultures were used to inoculate 25 μl, per well in 96-well broth microdilution assay plates. The final volume of each well was 100 μL and contained a β-lactam at different concentrations, a BLlcompound at 4 μg/mL concentration, the bacterial culture at an OD600 of approximately 0.001 and when necessary tetracycline at 25 μg/mL.
# Plates were incubated for 18-20 hours at 37° C. with aeration (200 rpm). Following incubation, growth was confirmed visually placing plates over a viewing apparatus (stand with a mirror underneath) and then OD600 was measured using a SpectraMax 340PC384 plate reader (Molecular Devices, Sunnyvale, Calif.). Growth was defined as turbidity that could be detected with the naked eye or achieving minimum OD600 of 0.1. MIC values were defined as the lowest concentration producing no visible turbidity.
# The synergy MIC (sMIC) assay determines the concentration of the BLI required to potentiate the activity of a fixed concentration of a β-lactam antibiotic against β-lactamase producing bacterial strains. The experimental protocol was performed according to Clinical and Laboratory Standards Institute (CLSI) guidelines with modifications as described below (CLSI guidelines can be derived from the CLSI document M07-A9 published in January 2012: “Methods for Dilution Antimicrobial Susceptibility Tests for Bacteria That Grow Aerobically; Approved Standard-Ninth Edition”). […]
row,Structure (SMILES),"activity against bacterial strains that express the class D cephalosporinase OXA-15, compared with Avibactam"
1,"O=C1N2C[C@@H](CC[C@H]2c2nnc([C@@H]3CNCCN3)o2)N1OS(=O)(=O)O [Compound 778, (2S,5R)-7-oxo-2-(5((S)-piperazin-2-yl)-1,3,4-oxadiazol-2-yl)-1,6-diazabicyclo[3.2.1]octan-6-yl hydrogen sulfate]",more active than Avibactam
2,"O=C1N2C[C@@H](CC[C@H]2c2nnc(N3CCNCC3)o2)N1OS(=O)(=O)O [Compound 713, (2S,5R)-7-oxo-2-(5-(piperazin-1-yl)-1,3,4-oxadiazol-2-yl)-1,6-diazabicyclo[3.2.1]octan-6-yl hydrogen sulfate]",more active than Avibactam
3,"O=C1N2C[C@@H](CC[C@H]2c2nnc(CCCN3CCNCC3)o2)N1OS(=O)(=O)O [Compound 792, (2S,5R)-7-oxo-2-(5-(3-(piperazin-1-yl)propyl)-1,3,4-oxadiazol-2-yl)-1,6-diazabicyclo[3.2.1]octan-6-yl hydrogen sulfate]",more active than Avibactam
4,"O=C1N2C[C@@H](CC[C@H]2c2nnc(CC3CNC3)o2)N1OS(=O)(=O)O [Compound 725, (2S,5R)-2-(5-(azetidin-3-ylmethyl)-1,3,4-oxadiazol-2-yl)-7-oxo-1,6-diazabicyclo[3.2.1]octan-6-yl hydrogen sulfate]",more active than Avibactam
5,"N=C(N)NCCCc1nnc([C@@H]2CC[C@@H]3CN2C(=O)N3OS(=O)(=O)O)o1 [Compound 714, (2S,5R)-2-(5-(3-guanidinopropyl)-1,3,4-oxadiazol-2-yl)-7-oxo-1,6-diazabicyclo[3.2.1]octan-6-yl hydrogen sulfate]",more active than Avibactam
6,"NC1CCN(c2nnc([C@@H]3CC[C@@H]4CN3C(=O)N4OS(=O)(=O)O)o2)CC1 [Compound 773, (2S,5R)-2-(5-(4-aminopiperidin-1-yl)-1,3,4-oxadiazol-2-yl)-7-oxo-1,6-diazabicyclo[3.2.1]octan-6-yl hydrogen sulfate]",more active than Avibactam
7,"NCC(N)c1nnc([C@@H]2CC[C@@H]3CN2C(=O)N3OS(=O)(=O)O)o1 (stereo partly drawn) [Compound 717, (2S,5R)-2-(5-(1,2-diaminoethyl)-1,3,4-oxadiazol-2-yl)-7-oxo-1,6-diazabicyclo[3.2.1]octan-6-yl hydrogen sulfate]",more active than Avibactam
8,"O=C1N2C[C@@H](CC[C@H]2c2nnc(N3CCNCC3)s2)N1OS(=O)(=O)O [Compound 797, (2S,5R)-7-oxo-2-(5-(piperazin-1-yl)-1,3,4-thiadiazol-2-yl)-1,6-diazabicyclo[3.2.1]octan-6-yl hydrogen sulfate]",more active than Avibactam
9,"N[C@H]1CC[C@@H](c2nnc([C@@H]3CC[C@@H]4CN3C(=O)N4OS(=O)(=O)O)o2)CC1 [Compound 780, (2S,5R)-2-(5-((1s,4R)-4-aminocyclohexyl)-1,3,4-oxadiazol-2-yl)-7-oxo-1,6-diazabicyclo[3.2.1]octan-6-yl hydrogen sulfate]",more active than Avibactam
10,"Nc1nnc([C@@H]2CC[C@@H]3CN2C(=O)N3OS(=O)(=O)O)o1 [Compound 707, (2S,5R)-2-(5-amino-1,3,4-oxadiazol-2-yl)-7-oxo-1,6-diazabicyclo[3.2.1]octan-6-yl hydrogen sulfate]",more active than Avibactam
11,"N=C(N)NCc1nnc([C@@H]2CC[C@@H]3CN2C(=O)N3OS(=O)(=O)O)o1 [Compound 704, (2S,5R)-2-(5-(guanidinomethyl)-1,3,4-oxadiazol-2-yl)-7-oxo-1,6-diazabicyclo[3.2.1]octan-6-yl hydrogen sulfate]",more active than Avibactam
12,"O=C1N2C[C@@H](CC[C@H]2c2nnc(C3CCNCC3)s2)N1OS(=O)(=O)O [Compound 719, (2S,5R)-7-oxo-2-(5-(piperidin-4-yl)-1,3,4-thiadiazol-2-yl)-1,6-diazabicyclo[3.2.1]octan-6-yl hydrogen sulfate]",more active than Avibactam
13,"NCC(O)c1nnc([C@@H]2CC[C@@H]3CN2C(=O)N3OS(=O)(=O)O)o1 (stereo partly drawn) [Compound 715, (2S,5R)-2-(5-(2-amino-1-hydroxyethyl)-1,3,4-oxadiazol-2-yl)-7-oxo-1,6-diazabicyclo[3.2.1]octan-6-yl hydrogen sulfate]",more active than Avibactam
14,"NCC(O)Cc1nnc([C@@H]2CC[C@@H]3CN2C(=O)N3OS(=O)(=O)O)o1 (stereo partly drawn) [Compound 733, (2S,5R)-2-(5-(3-amino-2-hydroxypropyl)-1,3,4-oxadiazol-2-yl)-7-oxo-1,6-diazabicyclo[3.2.1]octan-6-yl hydrogen sulfate]",more active than Avibactam
15,"NCCNCCc1nnc([C@@H]2CC[C@@H]3CN2C(=O)N3OS(=O)(=O)O)o1 [Compound 716, (2S,5R)-2-(5-(2-((2-aminoethyl)amino)ethyl)-1,3,4-oxadiazol-2-yl)-7-oxo-1,6-diazabicyclo[3.2.1]octan-6-yl hydrogen sulfate]",more active than Avibactam
16,"N=C(N)N[C@H]1C[C@H](c2nnc([C@@H]3CC[C@@H]4CN3C(=O)N4OS(=O)(=O)O)o2)C1 [Compound 748, (2S,5R)-2-(5-((1r,3S)-3-guanidinocyclobutyl)-1,3,4-oxadiazol-2-yl)-7-oxo-1,6-diazabicyclo[3.2.1]octan-6-yl hydrogen sulfate]",more active than Avibactam
17,"N[C@H]1CC[C@H](c2nnc([C@@H]3CC[C@@H]4CN3C(=O)N4OS(=O)(=O)O)o2)CC1 [Compound 781, (2S,5R)-2-(5-((1r,4S)-4-aminocyclohexyl)-1,3,4-oxadiazol-2-yl)-7-oxo-1,6-diazabicyclo[3.2.1]octan-6-yl hydrogen sulfate]",more active than Avibactam
18,"N=C(N)N1CCC(c2nnc([C@@H]3CC[C@@H]4CN3C(=O)N4OS(=O)(=O)O)o2)CC1 [Compound 712, (2S,5R)-2-(5-(1-carbamimidoylpiperidin-4-yl)-1,3,4-oxadiazol-2-yl)-7-oxo-1,6-diazabicyclo[3.2.1]octan-6-yl hydrogen sulfate]",more active than Avibactam
19,"O=C1N2C[C@@H](CC[C@H]2c2nnc(CNC3CCNCC3)o2)N1OS(=O)(=O)O [Compound 769, (2S,5R)-7-oxo-2-(5-((piperidin-4-ylamino)methyl)-1,3,4-oxadiazol-2-yl)-1,6-diazabicyclo[3.2.1]octan-6-yl hydrogen sulfate]",more active than Avibactam
20,"N[C@H]1C[C@H](NCc2nnc([C@@H]3CC[C@@H]4CN3C(=O)N4OS(=O)(=O)O)o2)C1 [Compound 757, (2S,5R)-2-(5-((((1r,3S)-3-aminocyclobutyl)amino)methyl)-1,3,4-oxadiazol-2-yl)-7-oxo-1,6-diazabicyclo[3.2.1]octan-6-yl hydrogen sulfate]",more active than Avibactam
